# Assay results as given in US5571892A, “Polypeptide and anti-HIV drug prepared therefrom” (priority 1990, dated 1996).
# Where a SMILES comes first, the peptide text is derived from it.
# Columns and labels:
# [1] = system: human immunodeficiency virus (HIV); conditions: for EC 50 (concentration at which cellular affection due to HIV infection is 50% inhibited): HIV-infected MT-4 cells, MOI 0.001, 5 days, MTT method; for Anti-HIV activity SI / Anti-HIV activity EC50: Table 3; for Anti-HIV activity SI: CC50/EC50; for Anti-HIV activity EC50: tested likewise in Example 2, HIV-infected MT-4 cells
# Protocol: HIV-infected MT-4 cells (2.5×10^4 cells/well, multiplicity of infection (MOI): 0.001) immediately after the infection are added together with a test substance with various changes of the concentration to a 96-well microtiter plate. After incubation at […] for 5 days in a CO2 incubator, the number of survivor cells is measured by the MTT method [Pauwels et al.; J. Virol. Methods, 20, 309-321 (1988)]. […] On the other hand, in order to know the cytotoxicity of the test substance on the MT-4 cells, virus-non-infected cells are incubated, likewise as above, together with the test compound with various changes of the concentration. […] Further, the rough ratio of CC 50 to EC 50 (CC 50/EC 50) is expressed as an effective ratio (SI).
# MT-4 cells = test: Cytotoxicity on virus-non-infected MT-4 cells (MTT method); type: cell-based; conditions: for CC 50 (50% cytotoxic concentration): Table 2, virus-non-infected MT-4 cells, 5 days, MTT method
# Protocol: HIV-infected MT-4 cells (2.5×10^4 cells/well, multiplicity of infection (MOI): 0.001) immediately after the infection are added together with a test substance with various changes of the concentration to a 96-well microtiter plate. After incubation at 7° C. for 5 days in a CO2 incubator, the number of survivor cells is measured by the MTT method [Pauwels et al.; J. Virol. […] On the other hand, in order to know the cytotoxicity of the test substance on the MT-4 cells, virus-non-infected cells are incubated, likewise as above, together with the test compound with various changes of the concentration.
Compound,EC 50 (concentration at which cellular affection due to HIV infection is 50% inhibited) ([1]; Table 2),"SI (effective ratio, CC 50/EC 50) ([1]; Table 2, rough ratio of CC 50 to EC 50)",Anti-HIV activity SI [1],Anti-HIV activity EC50 [1],"Concentration for antiviral activity relative to Tachyplesin I ([1]; compared with Tachyplesin I, Table 2 data)","Cytotoxicity compared with Tachyplesin I (MT-4 cells; MT-4 cells, Table 2 data)",CC 50 (50% cytotoxic concentration) (MT-4 cells),"CC 50 relative to azidothymidine (times higher) (MT-4 cells; compared with azidothymidine, Table 2 data)"
"CC[C@H](C)[C@@H]1NC(=O)CNC(=O)[C@H](CCCNC(=N)N)NC(=O)[C@H](Cc2ccc(O)cc2)NC(=O)[C@@H]2CSSC[C@H](NC1=O)C(=O)N[C@@H](Cc1ccc(O)cc1)C(=O)N[C@@H](CCCNC(=N)N)C(=O)N[C@@H](CCCCN)C(=O)N[C@H](C(=O)N[C@@H](CCCNC(=N)N)C(N)=O)CSSC[C@H](NC(=O)[C@H](Cc1c[nH]c3ccccc13)NC(=O)[C@@H](N)CCCNC(=N)N)C(=O)N[C@@H](Cc1ccc(O)cc1)C(=O)N[C@@H](CCCNC(=N)N)C(=O)N[C@@H](CCCCN)C(=O)N2 [Polypeptide (A)] (HELM PEPTIDE1{R.W.C.Y.R.K.C.Y.R.G.I.C.Y.R.K.C.R.[am]}$PEPTIDE1,PEPTIDE1,3:R3-16:R3|PEPTIDE1,PEPTIDE1,7:R3-12:R3$$$V2.0; N-terminus assumed)",0.35 µg/mL,110,1144,0.039 µg/mL,1/50,somewhat stronger cytotoxicity,39 µg/mL,60 times
"[H][C@]12CSSC[C@]([H])(NC(=O)[C@]([H])([C@@H](C)CC)NC(=O)CNC(=O)[C@H](CCCNC(=N)N)NC(=O)[C@H](Cc3ccc(O)cc3)NC1=O)C(=O)N[C@@H](Cc1ccc(O)cc1)C(=O)N[C@@H](CCCNC(=N)N)C(=O)N[C@@H](CCCNC(=N)N)C(=O)N[C@H](C(=O)N[C@@H](CCCNC(=N)N)C(N)=O)CSSC[C@H](NC(=O)[C@H](Cc1c[nH]c3ccccc13)NC(=O)[C@@H](N)CCCCN)C(=O)N[C@@H](Cc1ccccc1)C(=O)N[C@@H](CCCNC(=N)N)C(=O)N[C@@H](C(C)C)C(=O)N2 [Tachyplesin I, reference compound] (HELM PEPTIDE1{K.W.C.F.R.V.C.Y.R.G.I.C.Y.R.R.C.R.[am]}$PEPTIDE1,PEPTIDE1,3:R3-16:R3|PEPTIDE1,PEPTIDE1,7:R3-12:R3$$$V2.0; N-terminus and C-terminus assumed; bridges inferred)",18.1 µg/mL,,,,,,49 µg/mL,
"(1): polypeptide of the invention, SEQ ID NO: 2, shown only as drawing (WCYRKCYRGICYRKCR)",,,30,6.9 µg/mL,,,,
